The values below come from patent US20240368135A1 (VERTEX PHARMACEUTICALS INCORPORATED, priority 2021, published 2024).

The assay deals with human NaV 1.8 (Homo sapiens, UniProt Q9Y5Y9). Description: E-VIPR assay detecting and measuring NaV inhibition properties. In kind it is cell-based. The note with it: HEK cells expressing truncated human NaV 1.8. An outline of the steps: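 Membrane potential was followed by coumarin/oxonol FRET during electrical field stimulation of matrigel-seeded HEK cells carrying truncated human NaV1.8 plus KIR2.1. Dosing used 11 points, 3-fold steps, top 300 nM final, 0.625% DMSO, with or without 25% human serum.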
Sequence of human NaV 1.8 (Q9Y5Y9 126-399 limits assumed): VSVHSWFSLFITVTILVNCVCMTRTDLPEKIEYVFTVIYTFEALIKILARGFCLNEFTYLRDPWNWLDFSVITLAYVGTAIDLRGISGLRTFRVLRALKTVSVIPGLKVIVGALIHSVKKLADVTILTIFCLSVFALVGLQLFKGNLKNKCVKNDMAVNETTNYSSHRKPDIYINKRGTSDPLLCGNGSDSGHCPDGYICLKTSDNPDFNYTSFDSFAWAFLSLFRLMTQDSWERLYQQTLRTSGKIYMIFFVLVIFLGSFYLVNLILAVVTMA
Sequence of human NaV 1.8 (Q9Y5Y9 660-890 limits assumed): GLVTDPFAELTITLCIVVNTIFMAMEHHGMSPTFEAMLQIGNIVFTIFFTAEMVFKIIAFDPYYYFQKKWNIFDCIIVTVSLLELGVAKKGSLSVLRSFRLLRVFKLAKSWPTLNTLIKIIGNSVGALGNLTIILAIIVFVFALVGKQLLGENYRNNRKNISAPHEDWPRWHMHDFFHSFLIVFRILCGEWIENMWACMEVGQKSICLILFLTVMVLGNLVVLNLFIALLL
Sequence of human NaV 1.8 (Q9Y5Y9 1148-1722 limits assumed): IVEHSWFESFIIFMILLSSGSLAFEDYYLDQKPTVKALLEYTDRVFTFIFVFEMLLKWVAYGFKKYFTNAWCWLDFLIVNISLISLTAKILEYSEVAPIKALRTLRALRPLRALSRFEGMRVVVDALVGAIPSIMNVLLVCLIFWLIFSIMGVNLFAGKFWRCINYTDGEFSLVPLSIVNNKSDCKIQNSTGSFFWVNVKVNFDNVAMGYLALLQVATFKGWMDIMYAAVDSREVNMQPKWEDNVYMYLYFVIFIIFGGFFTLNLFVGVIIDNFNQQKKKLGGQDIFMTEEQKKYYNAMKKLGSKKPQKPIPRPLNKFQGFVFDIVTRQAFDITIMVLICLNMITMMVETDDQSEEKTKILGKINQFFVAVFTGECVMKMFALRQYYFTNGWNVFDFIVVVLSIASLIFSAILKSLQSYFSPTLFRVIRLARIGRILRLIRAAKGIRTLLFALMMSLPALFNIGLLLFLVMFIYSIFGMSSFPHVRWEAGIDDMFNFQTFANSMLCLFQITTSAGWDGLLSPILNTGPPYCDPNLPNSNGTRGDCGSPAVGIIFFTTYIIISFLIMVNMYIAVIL

Setting [1] is: no human serum, read-out: IC50 in the E-VIPR Assay.

pIC50: −log10 of the molar value. Like-named read-outs stand apart in the source and are kept apart here. A value given as a limit tells only on which side of the number the result lay.

By pIC50 is commonly meant −log10 of the IC50, conventionally taken in molar units. Turning to `COc1c([C@H]2[C@H](C(=O)Nc3ccc(CC4CCNCC4)nc3)O[C@@](C)(C(F)(F)F)[C@H]2C)ccc(F)c1F` [Compound 215, (2R,3S,4S,5R)-3-(3,4-difluoro-2-methoxyphenyl)-4,5-dimethyl-N-(6-(piperidin-4-ylmethyl)pyridin-3-yl)-5-(trifluoromethyl)tetrahydrofuran-2-carboxamide], the pIC50 under setting [1] was 7.00 to 8.00. Same read-out and setting: for `COc1c([C@H]2[C@H](C(=O)Nc3ccc(-n4cncn4)nc3)O[C@@](C)(C(F)(F)F)[C@H]2C)ccc(F)c1F` [Compound 402, (2R,3S,4S,5R)-N-(6-(1H-1,2,4-triazol-1-yl)pyridin-3-yl)-3-(3,4-difluoro-2-methoxyphenyl)-4,5-dimethyl-5-(trifluoromethyl)-tetrahydrofuran-2-carboxamide] the value was 7.00 to 8.00; for `COc1c([C@@H]2[C@H](C)[C@H](C)O[C@H]2C(=O)Nc2ccnc(C(O)CO)c2)ccc(F)c1F` (relative stereo) [Compound 718, rel-(2R,3S,4S,5S)-3-(3,4-difluoro-2-methoxyphenyl)-N-(2-(1,2-dihydroxyethyl)pyridin-4-yl)-4,5-dimethyltetrahydrofuran-2-carboxamide], 6.00 to 7.00; for `COc1c(C2C(C(=O)Nc3cccnc3)OC(C)(C(F)(F)F)C2C)ccc(F)c1F` (single isomer, unassigned) [Compound 29, 3-(3,4-difluoro-2-methoxy-phenyl)-4,5-dimethyl-N-(3-pyridyl)-5-(trifluoromethyl)tetrahydrofuran-2-carboxamide], not above 6.00. The same measure, in the same setting: the value for `COc1c([C@H]2[C@H](C(=O)Nc3ccnc(N4C(=O)CN(C)C[C@@H]4CO)c3)O[C@@](C)(C(F)(F)F)[C@H]2C)ccc(F)c1F` [Compound 511, (2R,3S,4S,5R)-3-(3,4-difluoro-2-methoxyphenyl)-N-(2-((R)-2-(hydroxymethyl)-4-methyl-6-oxopiperazin-1-yl)pyridin-4-yl)-4,5-dimethyl-5-(trifluoromethyl)tetrahydrofuran-2-carboxamide] was more than 8.00.

`Cc1nocc1NC(=O)[C@@H]1O[C@@](C)(C(F)(F)F)[C@@H](C)[C@H]1c1ccc(F)c(F)c1OCCN1CC2(COC2)C1` [Compound 619, (2R,3S,4S,5R)-3-(2-(2-(2-oxa-6-azaspiro[3.3]heptan-6-yl)ethoxy)-3,4-difluorophenyl)-4,5-dimethyl-N-(3-methylisoxazol-4-yl)-5-(trifluoromethyl)tetrahydrofuran-2-carboxamide]: the negative-log IC50 (pIC50) under setting [1] was 7.00 to 8.00.

In the case of `COCC(O)c1cc(NC(=O)[C@@H]2O[C@@](C)(C(F)(F)F)[C@@H](C)[C@H]2c2ccc(F)c(F)c2OCCN2CCOCC2)ccn1` (single isomer, unassigned) [Compound 595], the pIC50 under setting [1] was 7.00 to 8.00. On to `C[C@H]1[C@@H](c2ccc(F)c(F)c2OCCO)[C@H](C(=O)Nc2ccnc(C(C)(C)O)c2)O[C@@]1(C)C(F)(F)F` [Compound 540, (2R,3S,4S,5R)-3-(3,4-difluoro-2-(2-hydroxyethoxy)phenyl)-N-(2-(2-hydroxypropan-2-yl)pyridin-4-yl)-4,5-dimethyl-5-(trifluoromethyl)tetrahydrofuran-2-carboxamide], for which the negative logarithm of the IC50 (pIC50) under setting [1] is more than 8.00. Regarding `CCc1c(F)ccc([C@H]2C[C@@](C)(C(F)(F)F)O[C@@H]2C(=O)Nc2cn(S(C)(=O)=O)nc2C)c1OC` (stereo in doubt) [Compound 716, rel-(2S,3R,5S)-3-(3-ethyl-4-fluoro-2-methoxyphenyl)-5-methyl-N-(3-methyl-1-(methylsulfonyl)-1H-pyrazol-4-yl)-5-(trifluoromethyl)tetrahydrofuran-2-carboxamide], the pIC50 (in the presence of human serum (compound numbers followed by *), read-out: IC50 in the E-VIPR Assay, performed in the presence of human serum) was not above 6.00. Take `COc1c([C@@H]2[C@@H](C(=O)Nc3cnc(C(N)=O)nc3)O[C@](C)(C(F)(F)F)[C@@H]2C)ccc(F)c1C(F)F` (stereo in doubt) [Compound 172, rel-5((2S,3R,4R,5S)-3-(3-(difluoromethyl)-4-fluoro-2-methoxy-phenyl)-4,5-dimethyl-5-(trifluoromethyl)tetrahydrofuran-2-carboxamido)pyrimidine-2-carboxamide]: the pIC50 under setting [1] was not above 6.00. On the same count and under the same terms, for `COc1c([C@H]2[C@H](C(=O)Nc3ccc(S(N)(=O)=O)nc3)O[C@@](C)(C(F)(F)F)[C@H]2C)ccc(F)c1F` [Compound 235, (2R,3S,4S,5R)-3-(3,4-difluoro-2-methoxy-phenyl)-4,5-dimethyl-N-(6-sulfamoyl-3-pyridyl)-5-(trifluoromethyl)tetrahydrofuran-2-carboxamide] the value was 7.00 to 8.00.

For the compound `COc1c([C@@H]2[C@H](C)[C@H](C(C)C)O[C@H]2C(=O)Nc2cccnc2)ccc(F)c1F` [Compound 720, (2R,3S,4S,5S)-3-(3,4-difluoro-2-methoxyphenyl)-5-isopropyl-4-methyl-N-(pyridin-3-yl)tetrahydrofuran-2-carboxamide], under setting [1], the negative logarithm of the IC50 (pIC50) was 6.00 to 7.00. `COCCOc1cc(NC(=O)C2OC(C)(C(F)(F)F)C(C)C2c2ccc(F)c(F)c2OC)cnn1` (single isomer, unassigned) [Compound 33, 3-(3,4-difluoro-2-methoxy-phenyl)-N-[6-(2-methoxyethoxy)pyridazin-4-yl]-4,5-dimethyl-5-(trifluoromethyl)tetrahydrofuran-2-carboxamide]: the pIC50 under setting [1] was not above 6.00. On the same count and under the same terms, for `COc1c([C@H]2[C@H](C(=O)Nc3ccnc(C(F)CO)c3)O[C@@](C)(C(F)(F)F)[C@H]2C)ccc(F)c1F` (single isomer, unassigned) [Compound 439, rel-(2R*,3S*,4S*,5R*)-3-(3,4-difluoro-2-methoxyphenyl)-N-(2-(1-fluoro-2-hydroxyethyl)pyridin-4-yl)-4,5-dimethyl-5-(trifluoromethyl)tetrahydrofuran-2-carboxamide] the value was more than 8.00. For `Cc1nn(C(F)F)cc1NC(=O)[C@@H]1O[C@@](C)(C(F)(F)F)[C@@H](C)[C@H]1c1ccc(F)c(F)c1OC1CC(O)C1` (stereo partly drawn) [Compound 600, (2R,3S,4S,5R)-3-[3,4-difluoro-2-(3-hydroxycyclobutoxy)phenyl]-N-[1-(difluoromethyl)-3-methyl-pyrazol-4-yl]-4,5-dimethyl-5-(trifluoromethyl)tetrahydrofuran-2-carboxamide], the pIC50 under setting [1] was 7.00 to 8.00. For the compound `COc1c([C@H]2[C@H](C(=O)Nc3ccc(N4CCN(C)CC4=O)nc3)O[C@@](C)(C(F)(F)F)[C@H]2C)ccc(F)c1F` [Compound 391, (2R,3S,4S,5R)-3-(3,4-difluoro-2-methoxyphenyl)-4,5-dimethyl-N-(6-(4-methyl-2-oxopiperazin-1-yl)pyridin-3-yl)-5-(trifluoromethyl)-tetrahydrofuran-2-carboxamide], the pIC50 under setting [1] was 6.00 to 7.00. For `Cc1nn(CCO)cc1NC(=O)[C@H]1O[C@](C)(C(F)(F)F)[C@H](C)[C@@H]1c1ccc(F)c(F)c1OC(F)F` (single isomer, unassigned) [Compound 75], the pIC50 under setting [1] was not above 6.00. The same measure, in the same setting: for `CCOc1c([C@H]2[C@H](C(=O)Nc3ccn(C)c(=O)c3)O[C@@](C)(C(F)(F)F)[C@H]2C)ccc(F)c1F` (stereo in doubt) [Compound 103, rel-(2R,3S,4S,5R)-3-(2-ethoxy-3,4-difluorophenyl)-4,5-dimethyl-N-(1-methyl-2-oxo-1,2-dihydropyridin-4-yl)-5-(trifluoromethyl)tetrahydrofuran-2-carboxamide] the value was more than 8.00; for `CC(=O)N(C)c1cc(NC(=O)[C@@H]2O[C@@](C)(C(F)(F)F)[C@@H](C)[C@H]2c2ccc(F)c(F)c2OCCN2CC3(COC3)C2)ccn1` [Compound 637, (2R,3S,4S,5R)-N-[2-[acetyl(methyl)amino]-4-pyridyl]-3-[3,4-difluoro-2-[2-(2-oxa-6-azaspiro[3.3]heptan-6-yl)ethoxy]phenyl]-4,5-dimethyl-5-(trifluoromethyl)tetrahydrofuran-2-carboxamide], 7.00 to 8.00; for `COc1c([C@H]2[C@H](C(=O)Nc3ccnc(N4C[C@H]5C[C@H](N5)C4=O)c3)O[C@@](C)(C(F)(F)F)[C@H]2C)ccc(F)c1F` (single isomer, unassigned) [Compound 491, rel-(2R*,3S*,4S*,5R*)-3-(3,4-difluoro-2-methoxyphenyl)-4,5-dimethyl-N-(2-((1S,5R)-2-oxo-3,6-diazabicyclo[3.1.1]heptan-3-yl)pyridin-4-yl)-5-(trifluoromethyl)tetrahydrofuran-2-carboxamide], 7.00 to 8.00.

For the compound `COc1ncc(NC(=O)[C@@H]2O[C@@](C)(C(F)(F)F)[C@@H](C)[C@H]2c2ccc(F)c(F)c2OCCO)cn1` [Compound 550, (2R,3S,4S,5R)-3-(3,4-difluoro-2-(2-hydroxyethoxy)phenyl)-N-(2-methoxypyrimidin-5-yl)-4,5-dimethyl-5-(trifluoromethyl)tetrahydrofuran-2-carboxamide], under setting [1], the pIC50 was 6.00 to 7.00. For the compound `COc1c([C@H]2[C@H](C(=O)Nc3ccc(C(=O)NC#N)nc3)O[C@@](C)(C(F)(F)F)[C@H]2C)ccc(F)c1F` [Compound 373, N-cyano-5-[[(2R,3S,4S,5R)-3-(3,4-difluoro-2-methoxy-phenyl)-4,5-dimethyl-5-(trifluoromethyl)tetrahydrofuran-2-carbonyl]amino]pyridine-2-carboxamide], under setting [1], the negative-log IC50 (pIC50) is 6.00 to 7.00. On the same count and under the same terms, the value for `C[C@H]1[C@@H](c2ccc(F)c(F)c2OC(F)F)[C@H](C(=O)Nc2ccc(CC(C)(C)O)nc2)O[C@@]1(C)C(F)(F)F` (single isomer, unassigned) [Compound 462] was 6.00 to 7.00. For the compound `CCOc1c([C@@H]2[C@@H](C(=O)Nc3ccnc(S(C)(=N)=O)c3)O[C@](C)(C(F)(F)F)[C@@H]2C)ccc(F)c1F` (single isomer, unassigned) [Compound 11], the negative-log IC50 (pIC50) under setting [1] was not above 6.00. Consider `COc1c([C@H]2[C@H](C(=O)Nc3ccc(C(=O)O)nc3)O[C@@](C)(C(F)(F)F)[C@H]2C)ccc(F)c1F` [Compound 19, 5-[[(2R,3S,4S,5R)-3-(3,4-difluoro-2-methoxy-phenyl)-4,5-dimethyl-5-(trifluoromethyl)tetrahydrofuran-2-carbonyl]amino]pyridine-2-carboxylic acid], for which the pIC50 under setting [1] is more than 8.00.
